Assay results from ChEMBL document CHEMBL1138190, “Synthesis and antibacterial activity of novel C12 vinyl ketolides” (J Med Chem, 2006).
Values after ≈ are worked out from the molar mass of the structure shown.

How the values were obtained:
Format in all cases: functional
[1] = system: Haemophilus influenzae; test: Antibacterial activity against Haemophilus influenzae 2762
[2] = system: Staphylococcus aureus; test: Antibacterial activity against Staphylococcus aureus 29213
[3] = system: Staphylococcus aureus; test: Antibacterial activity against Staphylococcus aureus 33591
[4] = system: Staphylococcus epidermidis; test: Antibacterial activity against Staphylococcus epidermidis 14990
[5] = system: Staphylococcus epidermidis; test: Antibacterial activity against Staphylococcus epidermidis f50654
[6] = system: Enterococcus faecalis; test: Antibacterial activity against Enterococcus faecalis 29212
[7] = system: Enterococcus faecalis; test: Antibacterial activity against Enterococcus faecalis bc11148-2
[8] = system: Streptococcus pyogenes; test: Antibacterial activity against Streptococcus pyogenes 8668
[9] = system: Streptococcus pneumoniae; test: Antibacterial activity against Streptococcus pneumoniae 49619
[10] = system: Streptococcus pneumoniae; test: Antibacterial activity against Streptococcus pneumoniae 297-749
[11] = system: Streptococcus pneumoniae; test: Antibacterial activity against Streptococcus pneumoniae 280-962
[12] = system: Streptococcus pneumoniae; test: Antibacterial activity against Streptococcus pneumoniae Erm 6849
[13] = system: Streptococcus pneumoniae; test: Antibacterial activity against Streptococcus pneumoniae Mef 5654
[14] = system: Streptococcus pneumoniae; test: Antibacterial activity against Streptococcus pneumoniae Mef S 3427
[15] = system: Haemophilus influenzae; test: Antibacterial activity against Haemophilus influenzae 49247

Row | Compound | MIC [1] | MIC [2] | MIC [3] | MIC [4] | MIC [5] | MIC [6] | MIC [7] | MIC [8] | MIC [9] | MIC [10] | MIC [11] | MIC [12] | MIC [13] | MIC [14] | MIC [15]
1 | CC[C@H]1OC(=O)[C@H](C)[C@@H](O[C@H]2C[C@@](C)(OC)[C@@H](O)[C@H](C)O2)[C@H](C)[C@@H](O[C@@H]2O[C@H](C)C[C@H](N(C)C)[C@H]2O)[C@](C)(OC)C[C@@H](C)C(=O)[C@H](C)[C@@H](O)[C@]1(C)O [CLARITHROMYCIN] | 0.78 µg/mL (≈ 1.04 µM) | 0.4 µg/mL (≈ 0.535 µM) | > 50 µg/mL | 0.2 µg/mL (≈ 0.267 µM) | 0.2 µg/mL (≈ 0.267 µM) | 0.78 µg/mL (≈ 1.04 µM) | > 50 µg/mL | ≤ 0.05 µg/mL | ≤ 0.05 µg/mL | ≤ 0.05 µg/mL | ≤ 0.05 µg/mL | > 50 µg/mL | 6.25 µg/mL (≈ 8.36 µM) | 3.13 µg/mL (≈ 4.18 µM) | 6.25 µg/mL (≈ 8.36 µM)
2 | C=C[C@]12OC(=O)N(CCCCn3cnc4c(C)ncnc43)[C@@H]1[C@@H](C)C(=O)[C@H](C)C[C@@](C)(OC)[C@H](O[C@@H]1O[C@H](C)C[C@H](N(C)C)[C@H]1O)[C@@H](C)C(=O)[C@@H](C)C(=O)O[C@@H]2CC | 0.78 µg/mL (≈ 0.959 µM) | 0.1 µg/mL (≈ 0.123 µM) | > 50 µg/mL | 0.1 µg/mL (≈ 0.123 µM) | 0.1 µg/mL (≈ 0.123 µM) | ≤ 0.05 µg/mL | 0.4 µg/mL (≈ 0.492 µM) | ≤ 0.05 µg/mL | ≤ 0.05 µg/mL | ≤ 0.05 µg/mL | ≤ 0.05 µg/mL | > 50 µg/mL | 0.78 µg/mL (≈ 0.959 µM) | 0.2 µg/mL (≈ 0.246 µM) | 3.13 µg/mL (≈ 3.85 µM)
3 | C=C[C@]12OC(=O)N(CCCCn3cnc(-c4ccc(NC)nc4)c3)[C@@H]1[C@@H](C)C(=O)[C@H](C)C[C@@](C)(OC)[C@H](O[C@@H]1O[C@H](C)C[C@H](N(C)C)[C@H]1O)[C@@H](C)C(=O)[C@@H](C)C(=O)O[C@@H]2CC | 0.78 µg/mL (≈ 0.914 µM) | 0.1 µg/mL (≈ 0.117 µM) | > 50 µg/mL | 0.2 µg/mL (≈ 0.234 µM) | 0.1 µg/mL (≈ 0.117 µM) | 0.1 µg/mL (≈ 0.117 µM) | 0.78 µg/mL (≈ 0.914 µM) | ≤ 0.05 µg/mL | ≤ 0.05 µg/mL | ≤ 0.05 µg/mL | ≤ 0.05 µg/mL | 0.4 µg/mL (≈ 0.469 µM) | 1.56 µg/mL (≈ 1.83 µM) | 0.2 µg/mL (≈ 0.234 µM) | 3.13 µg/mL (≈ 3.67 µM)
4 | C=C[C@]12OC(=O)N(CCCCc3ccc(-c4cccnc4)s3)[C@@H]1[C@@H](C)C(=O)[C@H](C)C[C@@](C)(OC)[C@H](O[C@@H]1O[C@H](C)C[C@H](N(C)C)[C@H]1O)[C@@H](C)C(=O)[C@@H](C)C(=O)O[C@@H]2CC | 3.13 µg/mL (≈ 3.73 µM) | 0.2 µg/mL (≈ 0.238 µM) | 12.5 µg/mL (≈ 14.9 µM) | 0.2 µg/mL (≈ 0.238 µM) | 0.2 µg/mL (≈ 0.238 µM) | 0.1 µg/mL (≈ 0.119 µM) | 3.13 µg/mL (≈ 3.73 µM) | 0.1 µg/mL (≈ 0.119 µM) | ≤ 0.05 µg/mL | ≤ 0.05 µg/mL | ≤ 0.05 µg/mL | 3.13 µg/mL (≈ 3.73 µM) | 0.78 µg/mL (≈ 0.928 µM) | 0.2 µg/mL (≈ 0.238 µM) | 3.13 µg/mL (≈ 3.73 µM)

Results, then the compound that gave them:

Row | MIC [1] | MIC [2] | MIC [3] | MIC [4] | MIC [5] | MIC [6] | MIC [7] | MIC [8] | MIC [9] | MIC [10] | MIC [11] | MIC [12] | MIC [13] | MIC [14] | MIC [15] | Compound
5 | 0.78 µg/mL (≈ 0.913 µM) | 0.1 µg/mL (≈ 0.117 µM) | > 50 µg/mL | 0.2 µg/mL (≈ 0.234 µM) | 0.1 µg/mL (≈ 0.117 µM) | ≤ 0.05 µg/mL | 0.78 µg/mL (≈ 0.913 µM) | ≤ 0.05 µg/mL | ≤ 0.05 µg/mL | ≤ 0.05 µg/mL | ≤ 0.05 µg/mL | 0.4 µg/mL (≈ 0.468 µM) | 0.78 µg/mL (≈ 0.913 µM) | 0.1 µg/mL (≈ 0.117 µM) | 6.25 µg/mL (≈ 7.32 µM) | C=C[C@]12OC(=O)N(CCCCn3cnc(-c4ccc(OC)nc4)c3)[C@@H]1[C@@H](C)C(=O)[C@H](C)C[C@@](C)(OC)[C@H](O[C@@H]1O[C@H](C)C[C@H](N(C)C)[C@H]1O)[C@@H](C)C(=O)[C@@H](C)C(=O)O[C@@H]2CC
6 | 1.56 µg/mL (≈ 1.85 µM) | 0.1 µg/mL (≈ 0.119 µM) | > 50 µg/mL | 0.1 µg/mL (≈ 0.119 µM) | 0.1 µg/mL (≈ 0.119 µM) | 0.1 µg/mL (≈ 0.119 µM) | 0.4 µg/mL (≈ 0.475 µM) | ≤ 0.05 µg/mL | ≤ 0.05 µg/mL | ≤ 0.05 µg/mL | ≤ 0.05 µg/mL | 0.78 µg/mL (≈ 0.926 µM) | 0.4 µg/mL (≈ 0.475 µM) | 0.1 µg/mL (≈ 0.119 µM) | 3.13 µg/mL (≈ 3.72 µM) | C=C[C@]12OC(=O)N(CCCCn3cnc(-c4ccc(F)nc4)c3)[C@@H]1[C@@H](C)C(=O)[C@H](C)C[C@@](C)(OC)[C@H](O[C@@H]1O[C@H](C)C[C@H](N(C)C)[C@H]1O)[C@@H](C)C(=O)[C@@H](C)C(=O)O[C@@H]2CC
7 | 3.13 µg/mL (≈ 3.68 µM) | 0.2 µg/mL (≈ 0.235 µM) | > 50 µg/mL | 0.2 µg/mL (≈ 0.235 µM) | 0.2 µg/mL (≈ 0.235 µM) | 0.1 µg/mL (≈ 0.118 µM) | 0.2 µg/mL (≈ 0.235 µM) | ≤ 0.05 µg/mL | ≤ 0.05 µg/mL | ≤ 0.05 µg/mL | ≤ 0.05 µg/mL | ≤ 0.05 µg/mL | 0.4 µg/mL (≈ 0.471 µM) | 0.1 µg/mL (≈ 0.118 µM) | 6.25 µg/mL (≈ 7.35 µM) | C=C[C@]12OC(=O)N(CCN(C)Cc3ccnc(-c4cccnc4)c3)[C@@H]1[C@@H](C)C(=O)[C@H](C)C[C@@](C)(OC)[C@H](O[C@@H]1O[C@H](C)C[C@H](N(C)C)[C@H]1O)[C@@H](C)C(=O)[C@@H](C)C(=O)O[C@@H]2CC
